Data reported in publication PMC8557474, “Reliability of the AR-CALUX®In Vitro Method Used to Detect Chemicals with (Anti)Androgen Activity: Results of an International Ring Trial” (Toxicological Sciences, 2021).

How the values were obtained:
androgen receptor [1] = details: ref OECD, 2020b; cited from earlier work
androgen receptor [2] = tested on: androgen receptor; design: method as in Park et al., 2021; details: ref Park et al., 2021; cited from earlier work
androgen receptor [3] = tested on: androgen receptor; design: method as in Park et al., 2021; details: ref Park et al., 2021; cited from earlier work; remark: listed apart in the source
[4] = tested on: AR-CALUX cell line (U2-OS); experiment: Cytotoxicity in the AR-CALUX assay (LDH leakage and visual inspection); type: cell-based, human; details: agonist assay
Description: Each test chemical was firstly tested at the highest soluble concentration, starting from 50 mg/ml. Subsequently, the test chemical was assessed with a prescreen run (dilution steps of 10) and simultaneously with the quantitative cytotoxicity test to determine (1) cytotoxic concentrations, (2) the response, and (3) the appropriate dose range to be tested. […] The cytotoxicity test was performed once more. Test chemicals were diluted in media and consisted of 8 serial dilutions. Each dilution was tested in triplicate.
Cytotoxicity was evaluated in both the agonist and antagonist assay and was carried out with the LDH test which can be performed in parallel to the agonist/antagonist assay and for which no extra plates have to be prepared. A drawback of this test is that the measurement will occur when leakage happens, ie, when the cell wall is degrading and thus the cell is dead. Early events in the onset of cell death cannot be measured with this test. For this reason, the AR-CALUX® method stated that the cytotoxicity of the exposed cells should also be assessed visually (microscopy).

androgen receptor [5] = tested on: androgen receptor; design: method as in Kleinstreuer et al., 2017; details: ref Kleinstreuer et al., 2017; cited from earlier work
[6] = target: T1, human androgen receptor (hAR) (Homo sapiens, UniProt P10275); experiment: cell-based; type: cell-based
T1 construct: host or cells: U2-OS human osteosarcoma cells (ATCC HTB 96), stably transfected (AR-CALUX cell line)
T1 sequence (P10275 1-920): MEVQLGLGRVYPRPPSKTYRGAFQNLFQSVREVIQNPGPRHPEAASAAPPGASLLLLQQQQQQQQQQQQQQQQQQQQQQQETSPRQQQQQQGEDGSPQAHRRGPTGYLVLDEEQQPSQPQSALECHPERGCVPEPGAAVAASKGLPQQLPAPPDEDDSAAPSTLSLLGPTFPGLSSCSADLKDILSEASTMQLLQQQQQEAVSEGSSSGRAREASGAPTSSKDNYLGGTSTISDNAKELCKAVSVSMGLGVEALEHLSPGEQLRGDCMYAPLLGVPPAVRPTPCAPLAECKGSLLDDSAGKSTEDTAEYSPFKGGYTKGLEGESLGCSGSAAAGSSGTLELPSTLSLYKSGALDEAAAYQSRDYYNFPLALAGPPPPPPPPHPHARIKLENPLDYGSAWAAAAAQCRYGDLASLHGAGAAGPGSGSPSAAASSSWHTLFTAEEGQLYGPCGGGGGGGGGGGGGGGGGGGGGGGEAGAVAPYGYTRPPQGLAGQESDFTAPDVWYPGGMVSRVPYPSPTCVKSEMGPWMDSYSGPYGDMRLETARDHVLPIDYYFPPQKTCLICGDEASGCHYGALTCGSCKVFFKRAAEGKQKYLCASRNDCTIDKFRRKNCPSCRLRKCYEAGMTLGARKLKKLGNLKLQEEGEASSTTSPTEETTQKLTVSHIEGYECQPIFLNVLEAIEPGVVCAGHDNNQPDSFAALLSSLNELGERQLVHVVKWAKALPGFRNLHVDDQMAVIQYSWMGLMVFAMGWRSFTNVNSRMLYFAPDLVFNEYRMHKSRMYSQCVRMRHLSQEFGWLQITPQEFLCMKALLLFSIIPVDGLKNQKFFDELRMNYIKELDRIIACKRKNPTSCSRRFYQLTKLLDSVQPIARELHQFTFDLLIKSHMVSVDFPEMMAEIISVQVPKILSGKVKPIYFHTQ
Description: (§1) The AR-CALUX® cell line was created by BioDetection Systems (BDS). It can be purchased from BDS with a license (https://www.biodetectionsystems.com). The human osteosarcoma cell line U2-OS (ATCC HTB 96) was transfected with 2 constructs: pSG5-neo-hAR carrying the cDNA of a human androgen receptor (hAR) under a constitutive promoter, and, a luciferase reporter gene which is preceded by a triple tandem of AREs in front of a TATA box (3x ARE Luc). […] The AR-CALUX® cell line was obtained from the test method developer BDS. EURL ECVAM prepared a master cell bank and a large working cell bank which were tested for the absence of mycoplasma, bacteria, fungi, and yeast and for the absence of Hepatitis B and C and HIV. In addition, to verifying the authenticity of the cell line, Short Tandem Repeat (STR) profiling was carried out to confirm the test system to be U2-OS cells. […] The laboratories were requested, at the end of each part of the study (Parts 1, 2, and 3), to perform a mycoplasma test of their choice. Additional aliquots were sent to EURL ECVAM for a reanalysis of authenticity.
(§2) Subsequently, the test chemical was assessed with a prescreen run (dilution steps of 10) and simultaneously with the quantitative cytotoxicity test to determine (1) cytotoxic concentrations, (2) the response, and (3) the appropriate dose range to be tested. […] The cytotoxicity test was performed once more. Test chemicals were diluted in media and consisted of 8 serial dilutions. Each dilution was tested in triplicate.
(§3) Each experiment (run) was comprised of a maximum of 6 plates. The first plate would contain 8 serial dilutions of the reference chemical DHT (for agonism) or Flutamide (for antagonism), while the positive and negative controls were added at fixed concentrations. In addition, a solvent control was added (medium without the chemical but with DMSO 0.1%).
A. Positive when the relative induction (Yc) of the test item is ≥ 10% (REF RPC10) for two or more consecutive concentrations.

[7] = target: T1, human androgen receptor (hAR); experiment: AR-CALUX antagonist assay (medium spiked with DHT at EC50); type: cell-based
Description: as §1, §2, §3
For the antagonist assay, the medium was supplemented with DHT at EC50 concentration (standard assay). […] Each antagonist assay was accompanied by a specificity control test carried out on the same plate.
A. Positive (competitive antagonist) when the relative induction (Yc) of the test item is ≤ 80% (REF RPC80) for two or more consecutive concentrations and […]

androgen receptor [8] = details: tested at high concentrations (10 µM); ref Sonneveld et al., (2005); cited from earlier work

## C[C@]12CC[C@@H]3c4ccc(O)cc4CC[C@H]3[C@@H]1CC[C@@H]2O [17β-Estradiol]
Androgen receptor [1]
  AR-EcoScreen agonist result in words: AR agonist activity
Androgen receptor [2]
  22Rv1/MMTV/GR-KO TA agonist result in words: AR agonist activity
Androgen receptor [3]
  22Rv1/MMTV/GR-KO TA antagonist result in words: AR antagonist response

## CC(=O)O[C@]1(C(C)=O)CC[C@H]2[C@@H]3C=C(Cl)C4=CC(=O)[C@@H]5C[C@@H]5[C@]4(C)[C@H]3CC[C@@]21C [Cyproterone acetate]
[4]
  highest nontoxic concentration: 3 µM
Androgen receptor [5]
  AR-Reference list agonist result in words: weak positive

## CC(C)(O)C(=O)Nc1ccc([N+](=O)[O-])c(C(F)(F)F)c1 [Hydroxyflutamide]
[6]
  AR-CALUX agonist result in words: negative
  Agonist classification per run, Lab 1: N N N
  Agonist classification per run, Lab 2: N N N
  Agonist classification per run, Lab 3: N N N
  Agonist classification per run, Lab 4: N N N
[7]
  Antagonist classification per run, Lab 1: P P P
  Antagonist classification per run, Lab 2: P P P
  Antagonist classification per run, Lab 3: P P P
  Antagonist classification per run, Lab 4: P P P
Androgen receptor [1]
  AR-EcoScreen agonist result in words: negative
Androgen receptor [2]
  22Rv1/MMTV/GR-KO TA agonist result in words: positive

## CC(=O)[C@H]1CC[C@H]2[C@@H]3CCC4=CC(=O)CC[C@]4(C)[C@H]3CC[C@]12C [Progesterone]
Androgen receptor [2]
  22Rv1/MMTV/GR-KO TA agonist result in words: positive
Androgen receptor [8]
  RTA in comparison to DHT: 36%
